Article PMC4549712, “Inhibition of human GLUT1 and GLUT5 by plant carbohydrate products; insights into transport specificity” (Scientific Reports, 2015)
Substitutions are numbered along the chain they refer to. Values joined by “and” are separate entries in the source; they are usually repeats but may differ in a detail not shown here. Identical values can stand only once.

Key:
human GLUT5 = biological target: T1, human GLUT5 (Homo sapiens, UniProt P22732); assay: entrance counter-flow transport assay, GLUT5-mediated fructose transport in proteoliposomes; format: biochemical
T1 construct: Full length DNA was subcloned into pFastBac1 (Life Technologies) vector with a N-terminal hexahistidine tag; hexahistidine (thrombin-cleavable) (N, cleaved yes); made in house; host or cells: Sf21 insect cells (baculovirus, pFastBac1)
T1 sequence (P22732 1-501): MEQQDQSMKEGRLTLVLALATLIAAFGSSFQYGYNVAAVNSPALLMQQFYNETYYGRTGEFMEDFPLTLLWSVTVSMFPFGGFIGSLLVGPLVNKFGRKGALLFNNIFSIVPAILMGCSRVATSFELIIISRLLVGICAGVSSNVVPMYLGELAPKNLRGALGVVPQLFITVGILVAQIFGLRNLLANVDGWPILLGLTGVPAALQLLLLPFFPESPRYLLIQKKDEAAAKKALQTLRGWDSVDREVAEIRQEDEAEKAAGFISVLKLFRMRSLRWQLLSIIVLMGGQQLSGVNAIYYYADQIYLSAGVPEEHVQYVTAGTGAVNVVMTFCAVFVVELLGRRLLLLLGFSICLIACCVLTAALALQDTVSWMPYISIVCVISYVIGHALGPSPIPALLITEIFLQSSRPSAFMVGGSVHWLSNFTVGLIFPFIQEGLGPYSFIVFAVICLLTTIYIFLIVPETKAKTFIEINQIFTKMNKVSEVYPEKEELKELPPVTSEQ
From the text: Human GLUT1 and GLUT5 were expressed recombinantly in insect cell culture. The purified proteins were reconstituted into proteoliposomes. To measure the inhibition of GLUT1 or GLUT5 transport activity we used entrance counter-flow transport assay.
Proteoliposomes were generated according to the protocol from[30] with minor modifications. Liposomes were produced from a 95/5% (w/w) mix of soy phosphatidylcholine and cholesterol (Avanti Polar Lipids). Briefly, hexane-washed and vacuum-dried lipids were resuspended to 20 mg/ml in 100 mM KPi (pH 7.5), and then subjected to 11 freeze-and-thaw cycles in liquid nitrogen and room temperature water. The lipid mixture was extruded through a 0.1 μm polycarbonate filter. Prepared liposomes were destabilized with 4 mM Triton X-100 and mixed with purified protein in a 100:1 (w/w) ratio in 100 mM KPi (pH 7.5) 20% (v/v) glycerol, 200 mM (glucose or fructose). Detergent was removed by several additions of SM2 BioBeads (BioRad) and incubated overnight at 4 °C. After filtering out the BioBeads, proteoliposomes were diluted with 100 mM KPi (pH 7.5) 200 mM (glucose or fructose), and then collected by ultracentrifugation, at 200,000 × g and 4 °C, for 1 hour. The proteoliposomes pellet was resuspended in the above buffer so that O.D.600nm was ~30.
To measure hexose transport, we utilized entrance counter-flow assay. Transport was performed in a volume of 100 μL of 100 mM KPi (pH 7.5) buffer containing radioactive ^14C-hexose (4 μM fructose or 5 μM glucose) with inhibitors added before initiation of transport. […] The reaction was started by the addition of 3 μL concentrated proteoliposomes to the above solution and incubated at room temperature; the transport was stopped after one minute by addition of ice-chilled quench buffer [100 mM KPi (pH 5.5) and 100 mM LiCl]. The solution was filtered through a 0.4 μm pore size cellulose nitrate membrane filter (Whatman), and the filter was washed three times with quench buffer. The membrane filter was placed into a vial filled with BioSafe II scintillation liquid (Research Products International Corp.), and radioactivity was quantified with LS 6500 scintillation counter (Beckman). […] Data is presented as relative activity normalized to radioactivity of no inhibitor added as 100% and empty proteoliposomes as 0%. Kinetic parameters were fitted by nonlinear algorithm plots using Prism (GraphPad Software).

GLUT5A396W = biological target: T2, GLUT5A396W (Homo sapiens, UniProt P22732, A396W); assay: entrance counter-flow transport assay, fructose transport by GLUT5A396W proteoliposomes; format: biochemical
T2 construct: Full length DNA was subcloned into pFastBac1 (Life Technologies) vector with a N-terminal hexahistidine tag; hexahistidine (thrombin-cleavable) (N, cleaved yes); made in house; host or cells: Sf21 insect cells (baculovirus, pFastBac1)
T2 sequence (P22732 1-501 A396W): T1 sequence (P22732 1-501) with A396W
Procedure: We expressed and purified GLUT1W388A and GLUT5A396W. Purified mutant proteins were reconstituted into proteoliposomes and activity was determined by entrance counter-flow transport assay.
cDNAs of GLUT1 and GLUT5 were purchased from Open Biosystems (GE Healthcare). Full length DNA was subcloned into pFastBac1 (Life Technologies) vector with a N-terminal hexahistidine tag. Bacmids were generated in DH10Bac E. coli cells (Life Technologies). Baculoviruses were produced using Cellfectin II Reagent and amplified in Sf21 insect cells (Life Technologies). Cells were maintained at 26 °C, and P1 (10^6 pfu/mL) was collected from infected cells after 72 hours. Sf21 cells were propagated in HyClone SFX-Insect media (GE Healthcare), supplemented with 5% fetal bovine serum (Biowest), antibiotics (100 units/mL Penicillin G and 100 μg/mL streptomycin sulfate) and amphotericin B (2.5 μg/mL). For recombinant protein expression, Sf21 cells in suspension culture at 2 × 10^6 cells/ml were infected with P3 viral stock (10^8 pfu/mL), at an MOI of 1.0 pfu/cell. Four days after viral infection, cells from 2 L culture were collected by centrifugation at 2,000 × g and 25 °C. […]

C=C1C[C@@]23CC[C@H]4[C@@](C)(CCC[C@@]4(C)C(=O)O[C@@H]4O[C@H](CO)[C@@H](O)[C@H](O)[C@H]4O)[C@@H]2CC[C@]1(O[C@@H]1O[C@H](CO)[C@@H](O)[C@H](O)[C@H]1O)C3 [Rub, Rubusoside]
inhibition of GLUT5 fructose transport activity (human GLUT5; added at 20 mM): reducing activity to background levels | IC50 (human GLUT5; entrance counter-flow): 6.7 mM and ~5 mM and 5 mM | IC50 (GLUT5A396W): 10.3 mM and 10 mM
